Laboratory results from US9521847B2, “Synergistic weed control from applications of pyridine carboxylic acid herbicides and synthetic auxin herbicides and/or auxin transport inhibitors” (Dow AgroSciences LLC, priority 2014, dated 2016).

Key:
[1] = tested on: sunflower (Helianthus annus, HELAN); experiment: Greenhouse postemergence trial, % visual injury; format: in vivo
[2] = tested on: wild buckwheat (Polygonum convolvulus, POLCO); experiment: Greenhouse postemergence trial, % visual injury; format: in vivo
[3] = tested on: grain sorghum (Sorghum vulgare, SORVU); experiment: Greenhouse postemergence trial, % visual injury; format: in vivo
[4] = tested on: common chickweed (Stellaria media, STEME); experiment: Greenhouse postemergence trial, % visual injury; format: in vivo; conditions: aminopyralid-TIPA 5 g ae/ha
[5] = tested on: wild oat (Avena fatua, VEFA); experiment: Greenhouse postemergence trial, % visual injury; format: in vivo; conditions: AVEFA
[6] = tested on: large crabgrass (Digitaria sanguinalis, DIGSA); experiment: Greenhouse postemergence trial, % visual injury; format: in vivo; conditions: Digitaria sanguinalis, post-emergence, read-out: % visual injury, Obs
[7] = tested on: kochia (KCHSC, Kochia scoparia); experiment: Greenhouse postemergence trial, % visual injury; format: in vivo
[8] = tested on: Canadian thistle (CIRAR, Cirsium arvense); experiment: Greenhouse postemergence trial, % visual injury; conditions: Cirsium arvense, post-emergence;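 also: plants sprayed at second to third true leaf stage, injury scored visually 20-22 d later against solvent-blank sprayed controls, 0 meaning no injury and 100 complete kill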
[9] = tested on: spring rape (Brassica napus, BRSNN); experiment: Greenhouse postemergence trial, % visual injury; conditions: Brassica napus, post-emergence
[10] = tested on: poinsettia (Euphorbia heterophylla, EPHHL); experiment: Greenhouse postemergence trial, % visual injury; conditions: Euphorbia heterophylla, post-emergence, read-out: % visual injury, Obs
[11] = tested on: wild pansy (Viola tricolor, VIOTR); experiment: Greenhouse postemergence trial, % visual injury; conditions: for % visual injury, Obs: VIOTR
[12] = tested on: ivyleaf morningglory (Ipomoea hederacea, IPOHE); experiment: Greenhouse postemergence trial, % visual injury
winter wheat (TRZAW) = experiment: Greenhouse postemergence trial, crop phytotoxicity (% visual injury); conditions: for % visual injury, Obs: TRZAW
maize (ZEAMX) = experiment: as above; conditions: for % visual injury, Obs: ZEAMX
common rice (ORYSA) = experiment: as above
[13] = tested on: pigweed (AMARE, Amaranthus retroflexus); experiment: Greenhouse postemergence trial, % visual injury; format: in vivo
[14] = tested on: winter rape (BRSNW, Brassica napus); experiment: Greenhouse postemergence trial, % visual injury; format: in vivo; conditions: fluroxypyr-MHE 70 g ae/ha
[15] = tested on: common lambsquarters (CHEAL, Chenopodium album L.); experiment: Greenhouse postemergence trial, % visual injury; format: in vivo; conditions: Chenopodium album, post-emergence, read-out: % visual injury Obs
[16] = tested on: kochia (KCHSC, Kochia scoparia); experiment: Greenhouse postemergence trial, % visual injury; format: in vivo; conditions: fluroxypyr-MHE 100 g ae/ha
Method: Following the protocol in Example 1, compound 1 and compound 2 were combined with 2,4 D EHE (EC) and applied to kochia (KCHSC, Kochia scoparia) and the phytotoxicity of the herbicidal compositions was measured.
Following the protocol in Example 1, compound 1 (EC) and Compound 2 (SC) were combined with diflufenzopyr and applied to kochia (Kochia scoparia, KCHSC) and the phytotoxicity of the herbicidal composition was measured.

[17] = tested on: velvetleaf (Abutilon theophrasti, ABUTH); experiment: Greenhouse postemergence trial, % visual injury; format: in vivo
[18] = tested on: nutsedge (Cyperus esculentus, CYPES); experiment: Greenhouse postemergence trial, % visual injury; format: in vivo; conditions: CYPES, 70 g ae/ha
[19] = tested on: Russian thistle (Salsola iberica, SASKR); experiment: Greenhouse postemergence trial, % visual injury; format: in vivo; conditions: fluroxypyr-MHE 70 g ae/ha
[20] = tested on: wild mustard (Sinapis arvensis, SINAR); experiment: Greenhouse postemergence trial, % visual injury; format: in vivo; conditions: fluroxypyr-MHE 70 g ae/ha
[21] = tested on: blackgrass (Alopecurus myosuroides, ALOMY); experiment: Greenhouse postemergence trial, % visual injury; format: in vivo; conditions: 70 g ae/ha
[22] = tested on: barnyardgrass (Echinochloa crus-galli, ECHCG); experiment: Greenhouse postemergence trial, % visual injury; format: in vivo; conditions: fluroxypyr-MHE 100 g ae/ha
spring barley (HORVS) = experiment: Greenhouse postemergence trial, crop phytotoxicity (% visual injury)
[23] = tested on: ivyleaved speedwell (Veronica hederifolia, VERHE); experiment: Greenhouse postemergence trial, % visual injury; format: in vivo; conditions: aminocyclopyrachlor 100 g ae/ha
[24] = read-out: % visual injury (Obs)

## Nc1cc(Cl)nc(C(=O)O)c1Cl [aminopyralid-TIPA, aminopyralid-triisopropanolammonium, reference compound]
[1]; aminopyralid-TIPA 5 g ae/ha
  % visual injury (Obs): 60%
[2]; aminopyralid-TIPA 5 g ae/ha
  % visual injury (Obs): 65%
[3]; SORVU, 5 g ae/ha
  % visual injury, Obs: 5%
[3]; aminopyralid-TIPA 5 g ae/ha
  % visual injury (Obs): 0%
[4]
  % visual injury (Obs): 60%
[5]; 5 g ae/ha
  % visual injury, Obs: 0%
[6]
  pest or weed control at 5 g/ha: 5%
[7]; aminopyralid-TIPA 5 g ae/ha
  % visual injury (Obs): 10%
[8]; read-out: % visual injury (Obs), aminopyralid-TIPA 5 g ae/ha
  pest or weed control at 5 g/ha: 60%
[9]; [24]
  plant injury at 5 g/ha: 10%
[10]
  pest or weed control at 5 g/ha: 18%
[11]; 5 g ae/ha
  % visual injury, Obs: 48%
[11]; aminopyralid-TIPA 5 g ae/ha
  % visual injury (Obs): 10%
[12]; aminopyralid-TIPA 5 g ae/ha
  % visual injury (Obs): 60%
Winter wheat (TRZAW); 5 g ae/ha
  % visual injury, Obs: 0%
Winter wheat (TRZAW); aminopyralid-TIPA 5 g ae/ha
  % visual injury (Obs): 0%
Maize (ZEAMX); 5 g ae/ha
  % visual injury, Obs: 3%
Maize (ZEAMX); aminopyralid-TIPA 5 g ae/ha
  % visual injury (Obs): 0%
Common rice (ORYSA); aminopyralid-TIPA 5 g ae/ha
  % visual injury (Obs): 0%

## CCCCCCC(C)OC(=O)COc1nc(F)c(Cl)c(N)c1Cl (centres unmarked) [Fluroxypyr-MHE, fluroxypyr-meptyl, reference compound]
[13]; AMARE, 70 g ae/ha
  % visual injury, Obs: 70%
[13]; fluroxypyr-MHE 70 g ae/ha
  % visual injury (Obs): 50%
[14]
  % visual injury (Obs): 95%
[15]
  pest or weed control at 70 g/ha: 10%
[16]
  % visual injury (Obs): 65%
[17]; Abutilon theophrasti, post-emergence, read-out: % visual injury, Obs
  pest or weed control at 70 g/ha: 40%
[17]; fluroxypyr-MHE 100 g ae/ha
  % visual injury (Obs): 70%
[18]
  % visual injury, Obs: 0%
[1]; fluroxypyr-MHE 100 g ae/ha
  % visual injury (Obs): 80%
[2]; fluroxypyr-MHE 70 g ae/ha
  % visual injury (Obs): 75%
[19]
  % visual injury (Obs): 95%
[20]
  % visual injury (Obs): 85%
[21]
  % visual injury, Obs: 0%
[5]; 70 g ae/ha
  % visual injury, Obs: 0%
[6]
  pest or weed control at 70 g/ha: 33%
[22]
  % visual injury (Obs): 0%
[7]; fluroxypyr-MHE 70 g ae/ha
  % visual injury (Obs): 93%
[8]; read-out: % visual injury (Obs), fluroxypyr-MHE 100 g ae/ha
  pest or weed control at 100 g/ha: 60%
[8]; read-out: % visual injury Obs, 70 g ae/ha alone, 20-22 d
  pest or weed control at 70 g/ha: 10%
[9]; [24]
  plant injury at 100 g/ha: 85%
[9]; read-out: % visual injury, Obs
  plant injury at 70 g/ha: 15%
[10]
  pest or weed control at 70 g/ha: 18%
[11]; 70 g ae/ha
  % visual injury, Obs: 80%
[11]; fluroxypyr-MHE 100 g ae/ha
  % visual injury (Obs): 80%
[12]; Ipomoea, post-emergence, read-out: % visual injury, Obs
  pest or weed control at 70 g/ha: 80%
Spring barley (HORVS); crop, 70 g ae/ha alone, 20-22 d
  % visual injury Obs: 20%
Spring barley (HORVS); fluroxypyr-MHE 70 g ae/ha
  % visual injury (Obs): 0%
Winter wheat (TRZAW); 70 g ae/ha
  % visual injury, Obs: 0%
Winter wheat (TRZAW); fluroxypyr-MHE 70 g ae/ha
  % visual injury (Obs): 0%
Winter wheat (TRZAW); fluroxypyr-MHE 100 g ae/ha
  % visual injury (Obs): 0%
Maize (ZEAMX); 70 g ae/ha
  % visual injury, Obs: 0%
Maize (ZEAMX); fluroxypyr-MHE 100 g ae/ha
  % visual injury (Obs): 0%
Common rice (ORYSA); fluroxypyr-MHE 100 g ae/ha
  % visual injury (Obs): 0%

## Nc1nc(C2CC2)nc(C(=O)O)c1Cl [aminocyclopyrachlor, reference compound]
[23]
  % visual injury (Obs): 75%
